According to patent publication US10494380B2, “Nitrogen-containing tricyclic derivatives having HIV replication inhibitory activity” (priority 2015, dated 2019):
Where two headings read alike, the source gives them in different places.

What was measured:
Type in all cases: cell-based
HIV (HTLV-IIIB strain) = test: HIV replication inhibition assay (Test Example 1; MT-4 cells, MTT)
Procedure: HIV (HTLV-IIIB strain) persistent infected human T cell strain Molt-4 clone8 was cultured in RPMI-1640 medium supplemented with 10% fetal bovine serum and the supernatant was filtered, then the virus titer was measured and stored at −80° C. Each anti-human immunodeficiency virus active substance was diluted with the above culture medium to the designated concentration, which was dispensed into 96-well microtiter plate by 50 μL. Next, 100 μL of MT-4 cell suspension (2.5×10^4 cells) was dispensed into each well, then 50 μl of the above HIV-containing supernatant diluted with the above culture medium was added thereto (60 pfu (plaque forming unit)).
Cell mixture was cultured at 37° C. in CO2 incubator for four days, then 30 μL of MTT (3-(4,5-dimethylthiazole-2-yl)-2,5-diphenyltetrazolyum bromide) reagent (5 mg/mL in PBS) was added to all wells followed by incubation for 1 hour. In this step, MTT was reduced to insoluble formazan in living cells. To elute generated formazan 150 μL of the culture supernatant was removed from all wells, then 150 μL of cell lysis solution (10% Triton X-100 and 0.4% (v/v)-HCl containing isopropanol) was added thereto, followed by shaking with a plate mixer. The formazan was measured with micro plate reader at OD: 560 nm and 690 nm (reference wavelength) and the result was compared with the reference wells. EC50 and EC90 mean the compound concentration at which cytotoxicity caused by virus infection is inhibited 50% and 90%, respectively.

[1] = tested on: T125A mutant virus (HIV-1 NL-432 recombinant molecular clone, IN gene); test: HIV replication inhibition assay against integrase 124/125 mutant virus (Test Example 2)
How it was run: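 MT-4 cells (2.5×10^4 per well) infected with 60 pfu of 293T-derived HIV-1 NL-432 clone carrying integrase 124/125 point mutations, in presence of compound, cultured 4 days at 37 °C. Viability by MTT formazan at 560/690 nm; EC50 = concentration inhibiting 50% of virus-induced cytotoxicity.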

HIV = conditions: EC50 in the presence of human serum (25%) versus without human serum, MT-4 cells
How it was run: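 Compound is preincubated 1 h at room temperature with human serum, or with medium alone as the serum-free control. MT-4 cells infected with HIV (1 h, 37° C) are added and cultured 4 days. EC50 is determined with and without serum; their ratio gives the potency shift.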

[2] = Human immunodeficiency virus 1, MT4, 96 h, HIV (HTLV-IIIB strain), MT-4 cells, MTT, four days, read-out: EC50
[3] = Human immunodeficiency virus 1, MT4, 96 h, HIV (HTLV-IIIB strain), MT-4 cells, MTT, four days, read-out: EC90
[4] = Human immunodeficiency virus 1, MT4, read-out: EC50 against T125A mutant virus, T125A mutant virus (HIV-1 NL-432 IN gene), MT-4 cells, MTT
[5] = Human immunodeficiency virus 1, MT4, 96 h, MT-4 cells, HIV HTLV-IIIB strain, cultured four days, MTT, read-out: EC50
[6] = HIV (HTLV-IIIB strain), MT-4 cells, MTT, four days, read-out: EC50
[7] = HIV (HTLV-IIIB strain), MT-4 cells, MTT, four days, read-out: EC90
[8] = T125A mutant virus (HIV-1 NL-432 IN gene), MT-4 cells, MTT, read-out: EC50 against T125A mutant virus
[9] = Human immunodeficiency virus 1, IIIB, MT4, 96 h

Row | SMILES | EC50 (HIV (HTLV-IIIB strain); [2]) [nM] | EC90 (HIV (HTLV-IIIB strain); [3]) [nM] | EC50 [1, 4] [nM] | Potency shift value (HIV) | EC50 (HIV (HTLV-IIIB strain); [5]) [nM] | EC50 (HIV (HTLV-IIIB strain); [6]) [nM] | EC90 (HIV (HTLV-IIIB strain); [7]) [nM] | EC50 [1, 8] [nM] | EC50 (HIV (HTLV-IIIB strain); [9]) [nM] | EC90 (HIV (HTLV-IIIB strain); [9]) [nM]
1 | Cc1ccc(-c2c([C@H](OC(C)(C)C)C(=O)O)c(C)c3c4c2cc(C)n4CCN3c2noc(C)n2)cc1 [Compound I-227] | 1 | 1.4 | 4.1 | 15 |  |  |  |  |  | 
2 | Cc1ccc(-c2c([C@H](OC(C)(C)C)C(=O)O)c(C)c3c4c2cc(C)n4CCN3c2ncc(N3CCOCC3)cn2)cc1 [Compound I-272] | 1.6 | 2 | 4.3 | 16 |  |  |  |  |  | 
3 | Cc1c([C@H](OC(C)(C)C)C(=O)O)c(-c2ccc(Cl)cc2)c2cc(C)n3c2c1N1C(=O)OCC[C@@H]1C3 [Compound I-167] |  | 18 | 49 | 4.1 | 7.6 |  |  |  |  | 
4 | Cc1ccc(-c2c([C@H](OC(C)(C)C)C(=O)O)c(C)c3c4c2cc(C)n4CCN3c2ncc(OCCN3CCOCC3)cn2)cc1 [Compound I-276] | 1.5 | 2.5 | 5.1 | 5.9 |  |  |  |  |  | 
5 | Cc1c([C@H](OC(C)(C)C)C(=O)O)c(-c2ccc(Cl)cc2)c2cc(C)n3c2c1N(c1ncc(N2CCOCC2)cn1)CC3 [Compound I-246] | 2.3 | 2.5 | 4.5 | 23 |  |  |  |  |  | 
6 | COc1cnc(N2CCn3c(C)cc4c(-c5ccc(C)cc5O)c([C@H](OC(C)(C)C)C(=O)O)c(C)c2c43)nc1 [Compound I-205] |  |  |  | 32 |  | 16 | 35 | 63 |  | 
7 | Cc1ccc(-c2c([C@H](OC(C)(C)C)C(=O)O)c(Cl)c3c4c2cc(C)n4CCN3CCN(C)C)cc1 [Compound I-265] | 13 | 30 | 44 | 2.5 |  |  |  |  |  | 
8 | Cc1ccc(-c2c([C@H](OC(C)(C)C)C(=O)O)c(C)c3c4c2cc(C)n4CCN3c2ncc(O[C@@H]3CCN(C)C3)cn2)cc1 [Compound I-279] | 5.1 | 7.7 | 13 | 3.5 |  |  |  |  |  | 
9 | COc1cnc(N2CCn3c(C)cc4c(-c5ccc(C)cc5)c([C@H](OC(C)(C)C)C(=O)O)c(Cl)c2c43)nc1 [Compound I-226] |  |  |  | 26 |  | 1.2 | 1.6 | 3.6 |  | 
10 | Cc1ccc(-c2c([C@H](OC(C)(C)C)C(=O)O)c(C)c3c4c2cc(C)n4CCN3c2ncc(C3CCN(C)CC3)cn2)cc1 [Compound I-213] |  |  |  | 3.9 |  | 12 | 19 | 31 |  | 
11 | Cc1c([C@H](OC(C)(C)C)C(=O)O)c(-c2ccc(Cl)cc2)c2cc(C)n3c2c1N(c1ncc(OCCO)cn1)CC3 [Compound I-254] | 7.9 | 13 | 17 | 10 |  |  |  |  |  | 
12 | Cc1ccc(-c2c([C@H](OC(C)(C)C)C(=O)O)c(C)c3c4c2cc(C)n4CCN3c2ncc(OCF)cn2)cc1 [Compound I-282] | 1.4 | 2.1 | 4 | 36 |  |  |  |  |  | 
13 | Cc1ccc(-c2c([C@H](OC(C)(C)C)C(=O)O)c(C)c3c4c2cc(C)n4CCN3c2ccc(C)nn2)cc1 [Compound I-287] | 1.4 | 2.2 | 5.1 | 12 |  |  |  |  |  | 
14 | CC(=O)N1CCn2c(C)cc3c(-c4ccc(C)cc4)c([C@H](OC(C)(C)C)C(=O)O)c(C)c1c32 [Compound I-014] | 1.6 | 2.2 | 15 | 8.7 |  |  |  |  |  | 
15 | Cc1ccc(-c2c([C@H](OC(C)(C)C)C(=O)O)c(C)c3c4c2cc(C)n4CCN3c2ncc(N3CCN(C)CC3)cn2)cc1 [Compound I-204] |  |  |  | 3.6 |  | 4.1 | 5.8 | 9.5 |  | 
16 | COc1cnc(N2CCn3c(C)cc4c(-c5c(F)cc(C)cc5F)c([C@H](OC(C)(C)C)C(=O)O)c(C)c2c43)nc1 [Compound I-230] | 1.8 | 3.3 | 6.7 | 24 |  |  |  |  |  | 
17 | Cc1ccc(-c2c([C@H](OC(C)(C)C)C(=O)O)c(C)c3c4c2cc(C(F)(F)F)n4CCN3C)cc1 [Compound I-007] | 2 | 3.6 | 18 | 49 |  |  |  |  |  | 

Row | SMILES | EC50 (HIV (HTLV-IIIB strain); [2]) [nM] | EC90 (HIV (HTLV-IIIB strain); [3]) [nM] | EC50 [1, 4] [nM] | Potency shift value (HIV) | EC50 (HIV (HTLV-IIIB strain); [5]) [nM] | EC50 (HIV (HTLV-IIIB strain); [6]) [nM] | EC90 (HIV (HTLV-IIIB strain); [7]) [nM] | EC50 [1, 8] [nM] | EC50 (HIV (HTLV-IIIB strain); [9]) [nM] | EC90 (HIV (HTLV-IIIB strain); [9]) [nM]
18 | [2H]C([2H])([2H])Oc1cnc(N2CCn3c(C)cc4c(-c5ccc(C)cc5)c([C@H](OC(C)(C)C)C(=O)O)c(C)c2c43)nc1 [Compound I-266] | 1.3 | 2.1 | 3.7 | 23 |  |  |  |  |  | 
19 | Cc1ccc(-c2c([C@H](OC(C)(C)C)C(=O)O)c(C)c3c4c2cc(C)n4CCN3CCN2CCCO2)cc1 [Compound I-170] |  | 5.2 | 18 | 3.5 | 3.1 |  |  |  |  | 
20 | CCS(=O)(=O)N1CCn2c(C)cc3c(-c4ccc(Cl)cc4)c([C@H](OC(C)(C)C)C(=O)O)c(C)c1c32 [Compound I-023] | 1 | 2.6 | 5.5 | 12 |  |  |  |  |  | 
21 | Cc1ccc(-c2c([C@H](OC(C)(C)C)C(=O)O)c(C)c3c4c2cc(C)n4CC(=O)N3C)cc1 [Compound I-020] | 9.5 | 12 |  | 41 |  |  |  |  |  | 
22 | Cc1ccc(-c2c([C@H](OC(C)(C)C)C(=O)O)c(C)c3c4c2cc(C)n4CCN3CCO)cc1 [Compound I-021] | 5.2 | 7.5 | 22 | 5.4 |  |  |  |  |  | 
23 | Cc1c([C@H](OC(C)(C)C)C(=O)O)c(-c2ccc(Cl)cc2)c2cc(C)n3c2c1N(S(=O)(=O)CC[Si](C)(C)C)CC3 [Compound I-029] |  |  | 89 | 28 |  |  |  |  | 8.6 | 12
24 | Cc1ccc(-c2c([C@H](OC(C)(C)C)C(=O)O)c(C)c3c4c2cc(C)n4CCN3c2ncc(C)cn2)cc1 [Compound I-235] | 1.6 |  | 2.8 | 46 |  |  |  |  |  | 
25 | Cc1ccc(-c2c([C@H](OC(C)(C)C)C(=O)O)c(C)c3c4c2cc(C(F)F)n4CCN3C)cc1 [Compound I-024] | 1.6 | 2.1 | 7.7 | 22 |  |  |  |  |  | 
26 | Cc1ccc(-c2c([C@H](OC(C)(C)C)C(=O)O)c(C)c3c4c2cc(C)n4CCN3C)c(O)c1 (mixture of isomers) [Compound I-245] | 27 | 42 | 63 | 12 |  |  |  |  |  | 
27 | Cc1c([C@H](OC(C)(C)C)C(=O)O)c(-c2ccc(Cl)cc2)c2cc(C)n3c2c1N(C(=O)CN(C)C)CC3 [Compound I-017] | 20 | 31 | 94 | 4.5 |  |  |  |  |  | 
28 | Cc1c([C@H](OC(C)(C)C)C(=O)O)c(-c2ccc(F)cc2)c2cc(C)n3c2c1N(CCN(C)C)CC3 [Compound I-171] |  | 24 | 62 | 1.4 | 15 |  |  |  |  | 
29 | COCc1cc2c(-c3ccc(C)cc3)c([C@H](OC(C)(C)C)C(=O)O)c(C)c3c2n1CCN3C [Compound I-011] | 16 | 24 |  | 21 |  |  |  |  |  | 
30 | CNCC(=O)N1CCn2c(C)cc3c(-c4ccc(Cl)cc4)c([C@H](OC(C)(C)C)C(=O)O)c(C)c1c32 [Compound I-018] | 83 | 100 |  | 6.8 |  |  |  |  |  | 
31 | Cc1ccc(-c2c([C@H](OC(C)(C)C)C(=O)O)c(C)c3c4c2cc(C)n4CCN3c2ncc(OCC3COC3)cn2)cc1 [Compound I-268] | 1.5 | 2.1 | 4.8 | 19 |  |  |  |  |  | 
32 | Cc1ccc(-c2c([C@H](OC(C)(C)C)C(=O)O)c(C)c3c4c2cc(C)n4CCN3CCN2C3CCC2COC3)cc1 [Compound I-172] |  | 5.4 | 16 | 2.3 | 3.5 |  |  |  |  | 
33 | CCN1CCn2c(C)cc3c(-c4ccc(C)cc4)c([C@H](OC(C)(C)C)C(=O)O)c(C)c1c32 [Compound I-009] | 0.98 | 1.6 | 14 | 38 |  |  |  |  |  | 
